Data as given in ChEMBL document CHEMBL4602703, “Lead Optimization of a Pyrrole-Based Dihydroorotate Dehydrogenase Inhibitor Series for the Treatment of Malaria” (J Med Chem, 2020).

What was measured:
[1] = Inhibition of N-terminal His6-tagged Plasmodium falciparum DHODH expressed in Escherichia coli BL21(DE3) cells using L-DHO as substrate by DCIP dye based assay
Plasmodium falciparum = experiment: microbe, parasite or virus in culture; conditions: 3D7, 72 h
[2] = molecular target: Dihydroorotate dehydrogenase (quinone), mitochondrial (Homo sapiens, UniProt Q02127)
Chain of Dihydroorotate dehydrogenase (quinone), mitochondrial (Q02127 whole entry): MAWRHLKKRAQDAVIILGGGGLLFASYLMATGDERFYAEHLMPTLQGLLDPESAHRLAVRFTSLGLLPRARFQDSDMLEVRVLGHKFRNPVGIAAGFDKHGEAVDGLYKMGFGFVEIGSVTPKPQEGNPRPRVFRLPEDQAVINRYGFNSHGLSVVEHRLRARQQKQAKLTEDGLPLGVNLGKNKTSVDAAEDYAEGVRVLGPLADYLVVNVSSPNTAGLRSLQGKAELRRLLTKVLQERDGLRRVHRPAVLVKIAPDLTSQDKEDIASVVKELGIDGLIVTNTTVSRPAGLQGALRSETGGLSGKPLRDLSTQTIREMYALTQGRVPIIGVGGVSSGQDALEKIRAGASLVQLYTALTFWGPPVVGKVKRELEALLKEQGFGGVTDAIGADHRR

[3] = Intrinsic clearance in human liver microsomes assessed as per mg protein; assay type: ADME, Microsome
[4] = Intrinsic clearance in mouse liver microsomes assessed as per mg protein; assay type: ADME, Microsome; conditions: microsomes
Albumin = Albumin (Homo sapiens, UniProt P02768); experiment: Binding affinity to albumin (unknown origin) by chromatographic method; assay type: ADME; conditions: albumin, read-out: PB (converted)
Chain of Albumin (P02768 whole entry): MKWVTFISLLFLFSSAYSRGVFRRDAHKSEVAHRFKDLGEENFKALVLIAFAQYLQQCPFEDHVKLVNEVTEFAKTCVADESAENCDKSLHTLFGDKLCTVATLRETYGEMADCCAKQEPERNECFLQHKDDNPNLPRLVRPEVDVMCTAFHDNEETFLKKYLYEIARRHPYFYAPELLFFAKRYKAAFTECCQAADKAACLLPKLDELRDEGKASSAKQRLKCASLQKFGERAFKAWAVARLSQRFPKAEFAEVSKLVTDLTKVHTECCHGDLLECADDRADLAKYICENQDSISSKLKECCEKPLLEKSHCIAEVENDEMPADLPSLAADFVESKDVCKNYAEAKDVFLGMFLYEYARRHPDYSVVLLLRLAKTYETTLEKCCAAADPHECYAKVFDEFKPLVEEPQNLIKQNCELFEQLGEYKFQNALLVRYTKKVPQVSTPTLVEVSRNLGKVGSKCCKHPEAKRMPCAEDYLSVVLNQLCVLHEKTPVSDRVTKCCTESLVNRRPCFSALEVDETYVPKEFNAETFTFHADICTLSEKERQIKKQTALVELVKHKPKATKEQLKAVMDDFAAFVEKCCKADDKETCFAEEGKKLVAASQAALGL

physchem = conditions: octanol/water, pH 7.4

Row | SMILES | IC50 [1] [nM] | EC50 (Plasmodium falciparum) [nM] | IC50 [2] [nM] | microsomal CLint [3] [µL/min/mg] | microsomal CLint [4] [µL/min/mg] | fraction unbound (Albumin) | logD (physchem)
1 | Cc1[nH]c(C(=O)NC2CN(C)C2)cc1Cc1ccc(C(F)(F)F)nc1 | > 100000 | > 20000 | – | – | – | – | –
2 | CCCCNC(=O)c1[nH]c(C)c(Cc2ccc(C(F)(F)F)cc2)c1C | 9900 | 710 | > 100000 | – | – | – | –
3 | O=C(NC1CC1)c1[nH]cc(Cc2ccc(C(F)(F)F)nc2)c1CO | 4300 | 1200 | – | – | – | – | –
4 | Cc1[nH]c(C(=O)N2CCC2)c(C)c1Cc1ccc(C(F)(F)F)cn1 | 1800 | 1000 | > 100000 | – | – | – | –
5 | COCc1c(Cc2ccc(C(F)(F)F)nc2)c[nH]c1C(=O)NC1CC1 | 450 | 240 | > 100000 | – | – | – | –
6 | Cc1c(C(=O)NC2CC2)[nH]c(C(F)(F)F)c1Cc1ccc(C(F)(F)F)nc1 | 1600 | 770 | – | – | – | – | –
7 | Cc1[nH]c(C(=O)NC2CC2)c(C)c1C(=O)c1ccc(C(F)(F)F)cn1 | > 100000 | 10000 to 20000 | – | 8 | 24 | 0.496 | 2.4
8 | Cc1c(Cc2ccc(C(F)(F)F)nc2)c[nH]c1C(=O)NC1CC(F)(F)C1 | 3600 | 1300 | – | – | – | – | –
9 | Cc1c(Cc2ccc(C(F)(F)F)nc2)c[nH]c1C(=O)NC1(C(F)(F)F)CC1 | 9300 | 3900 | – | – | – | – | –
10 | Cc1[nH]c(C(=O)NC2CC2)cc1Cc1cnc(C(F)(F)F)nc1 | > 100000 | > 10000 | – | < 7 | 8 | 0.555 | 2.5
11 | CCOC(=O)c1[nH]c(C)c(Cc2cc(OC)cc(OC)c2)c1C | 2300 | 10000 | > 100000 | – | – | – | –
12 | Cc1[nH]c(C(=O)N2CCCC2)cc1Cc1ccc(C(F)(F)F)nc1 | > 100000 | > 10000 | – | 226 | 138 | 0.185 | 3.2
13 | Cc1[nH]c(C(=O)N2CCCCC2)cc1Cc1ccc(C(F)(F)F)nc1 | > 100000 | > 20000 | – | 173 | 93 | 0.125 | 3.5
14 | CCOC(=O)c1[nH]cc(Cc2ccc(C(F)(F)F)cc2F)c1C | 35 | 28 | > 100000 | – | – | – | –
15 | Cc1[nH]c(C(=O)NC2CCC2)c(C)c1Cc1ccc(C(F)(F)F)nc1 | 42 to 72 | 66 | > 100000 | – | – | – | –
16 | Cc1c(Cc2ccc(C(F)(F)F)nc2)c[nH]c1C(=O)NC(C)(C)C | 110 | 51 | > 100000 | – | – | – | –
17 | Cc1[nH]c(C(=O)NC2CCN(C)CC2)cc1Cc1ccc(C(F)(F)F)nc1 | > 100000 | > 10000 | – | – | – | – | –
18 | Cc1[nH]c(C(=O)NC2CCC2)c(C)c1Cc1ccc(C(F)(F)F)cn1 | 410 | 470 to 680 | > 100000 | – | – | – | –
19 | CCOC(=O)c1[nH]c(C)c(C(=O)c2ccc(C(F)(F)F)cn2)c1C | 21000 | 6500 | – | – | – | – | –
20 | Cc1c(Cc2cnc(C(F)(F)F)nc2)c[nH]c1C(=O)NC1CC1 | – | 390 | > 100000 | < 7 | – | – | 2.5
21 | CCOC(=O)c1[nH]c(C)c(Cc2ccc(C(C)C)cc2)c1C | 570 | 470 | > 100000 | – | – | – | –
22 | Cc1[nH]c(C(=O)NC2CC2)c(C)c1Cc1ccc(C(F)(F)F)cn1 | 440 | 340 | – | – | – | – | –
23 | Cc1[nH]c(C(=O)NC2CC2)c(C)c1Cc1ccc(C(F)(F)F)nc1 | – | 36 | > 100000 | 15 | 33 | 0.172 | 3
24 | Cc1[nH]c(C(=O)NC2CCNCC2)cc1Cc1ccc(C(F)(F)F)nc1 | > 100000 | > 10000 | – | – | – | – | –
25 | Cc1[nH]c(C(=O)NC2CCOCC2)cc1Cc1ccc(C(F)(F)F)nc1 | > 100000 | > 10000 | – | – | – | – | –
26 | CCOC(=O)c1c(C)c(Cc2ccc(C(F)(F)F)cc2)c(C)n1C | > 100000 | – | – | – | – | – | –
27 | Cc1[nH]c(C(=O)N2CCC2)c(C)c1Cc1ccc(C(F)(F)F)nc1 | 140 | 130 | – | 31 | 53 | 0.228 | 2.9

Row | SMILES | IC50 [1] [nM] | EC50 (Plasmodium falciparum) [nM] | IC50 [2] [nM] | microsomal CLint [3] [µL/min/mg] | microsomal CLint [4] [µL/min/mg] | fraction unbound (Albumin) | logD (physchem)
28 | Cc1c(Cc2ccc(C(F)(F)F)nc2)c[nH]c1C(=O)NC(C)C | 80 | 13 | > 100000 | – | – | – | –
29 | CCCNC(=O)c1[nH]c(C)c(Cc2ccc(C(F)(F)F)cc2)c1C | 300 | 110 | > 100000 | – | – | – | –
30 | Cc1[nH]c(C(=O)O)c(C)c1Cc1ccc(C(F)(F)F)cc1 | – | > 10000 | – | – | – | – | –
31 | CCOC(=O)c1[nH]c(C)c(Cc2cccc(OCC)c2)c1C | 830 | 530 | > 100000 | – | – | – | –
32 | CCNC(=O)c1[nH]c(C)c(Cc2ccc(C(F)(F)F)cc2)c1C | 140 | 51 | > 100000 | – | – | – | –
33 | Cc1c(Cc2ccc(C(F)(F)F)nc2)c[nH]c1C(=O)NC1CC(F)C1 (stereo not drawn) | 320 | 170 | – | – | – | – | –
34 | Cc1[nH]c(C(=O)N(C)C)c(C)c1Cc1ccc(C(F)(F)F)nc1 | > 30000 | > 10000 | – | – | – | – | –
35 | COc1cc(C(F)(F)F)ccc1Cc1c[nH]c(C(=O)NC2CC2)c1C | 110 | 260 | > 100000 | – | – | – | –
36 | CCOC(=O)c1[nH]cc(Cc2ccc(C(F)(F)F)cc2)c1C | 130 | 60 | > 100000 | – | – | – | –
37 | CCOC(=O)c1[nH]cc(Cc2ccc(C#N)nc2)c1C | 630 | 200 | – | – | – | – | –
38 | Cc1c(Cc2c(F)cc(C(F)(F)F)cc2F)c[nH]c1C(=O)NC1CC1 | 1200 | 420 | – | – | – | – | –
39 | Cc1c(Cc2ccc(C(F)(F)F)nc2)c[nH]c1C(=O)NS(C)(=O)=O | > 100000 | > 100000 | – | – | – | – | –
40 | CCOC(=O)c1[nH]c(C)c(Cc2ccc(OCC)cc2)c1C | – | 230 to 250 | > 100000 | 188 | 470 | – | 4.5
41 | CCOC(=O)c1[nH]c(C)c(Cc2ccc(C(F)(F)F)cn2)c1C | 300 | 100 | > 100000 | – | – | – | –
42 | CCOC(=O)c1[nH]cc(Cc2ccc(C(F)(F)F)cc2OC)c1C | 1100 | 810 | – | – | – | – | –
43 | Cc1c(Cc2ccc(C(F)(F)F)nc2)c[nH]c1C(=O)N1CCCC1 | 9800 | 4800 | – | – | – | – | –
44 | CCCC(=O)c1[nH]cc(Cc2ccc(C(F)(F)F)nc2)c1C | 98 | 65 | > 100000 | – | – | – | –
45 | Cc1c(Cc2ccc(C(F)(F)F)nc2)c[nH]c1C(=O)N1CC(F)C1 | 120 | 51 | > 100000 | 7 | 145 | – | –
46 | CCOC(=O)c1[nH]cc(Cc2ccc(C(F)(F)F)cc2Cl)c1C | 42 | 29 | > 100000 | – | – | – | –
47 | Cc1c(Cc2ccc(C(F)(F)F)nc2)c[nH]c1C(=O)C1CC1 | 18 | 9.9 | > 100000 | – | – | – | –
48 | Cc1[nH]c(C(=O)NC(C)C)cc1Cc1ccc(C(F)(F)F)nc1 | 2800 | 1900 | – | – | – | – | –
49 | Cc1[nH]c(C(=O)NC2CNC2)cc1Cc1ccc(C(F)(F)F)nc1 | > 100000 | > 20000 | – | – | – | – | –
50 | Cc1c(Cc2cccnc2)c[nH]c1C(=O)NC1CC1 | > 100000 | > 10000 | – | 19 | 138 | 0.268 | –
51 | CCN(CC)C(=O)c1[nH]c(C)c(Cc2ccc(C(F)(F)F)nc2)c1C | 13000 | > 10000 | – | – | – | – | –
52 | Cc1[nH]c(C(=O)NC(C)(C)C)cc1Cc1ccc(C(F)(F)F)nc1 | 5700 | 3500 | – | – | – | – | –
53 | CCOC(=O)c1[nH]cc(Cc2c(F)cc(C(F)(F)F)cc2F)c1C | > 30000 | > 10000 | – | – | – | – | –
